Results reported in patent US20220073592A1, “SYNTHETIC AND RECOMBINANT COLLAGEN PEPTIDES HAVING BIOLOGICAL ACTIVITY” (GELITA AG, priority 2018, published 2022).
Values joined by “and” are separate entries in the source; they are usually repeats but may differ in a detail not shown here. Equal entries are not always repeated. Where no end group is shown, it is not given here. [ ]: non-standard residue; d: D form. Hyp = O=C(O)[C@@H]1C[C@@H](O)CN1

Key:
Format in all cases: cell-based
[1] = tested on: human dermal fibroblasts; experiment: Sircol collagen assay, collagen synthesis by dermal fibroblasts; conditions: 0.5 mg/ml peptide, three weeks stimulation
Method: (§1) The human cells used were obtained from tebu-bio GmbH, Offenbach, Germany. The chondrocytes (Cat. No. 402-05a) or dermal fibroblasts (Cat. No. 106-05a) were first sown in 12-well culture plates and cultured at 37° C., 5% CO2 in Ham's F12 medium, to which 10% fetal calf serum, 20 U/ml penicillin-streptomycin and 50 μg/ml ascorbic acid were added. On every other day, the culture medium was replaced by new culture medium until the cells had reached 80% confluence. […] To investigate the collagen metabolism, the amount of newly synthesized collagen was determined after stimulating the cells with 0.5 mg/ml BCP for three weeks. The synthesized collagen was isolated using the Sircol assay (Article No. 054S5000, 2019, tebu-bio, Offenbach, Germany, or Biocolor Ltd., UK) according to the manufacturer's instructions. In brief, the culture medium was initially discarded and the adherent cell layers were digested with 0.1 mg pepsin solution in 0.5 M acetic acid at 4° C. overnight. The cell suspensions were neutralized by adding 100 μl of an acid-neutralizing reagent. The synthesized collagen was then separated off by adding 200 μl of an isolation and concentration solution with vigorous shaking at 4° C. overnight. After centrifugation (12,000 rpm, 10 min) and discarding the supernatant, the isolated collagen was resuspended in 1 ml of Sircol dye solution. After 30 minutes of shaking and another centrifugation, the collagen pellet was covered with 750 μl of cold acidic solid washing reagent. After another centrifugation, the supernatant was again discarded and the enriched collagen was taken up in 250 μl of alkaline solution. In each case 200 μl of the sample solutions were used for photometric quantification of the synthesized collagen. The absorbance was measured at a wavelength of 492 nm. The amount of collagen synthesized in each case was determined on the basis of standardized collagen solutions.

[2] = tested on: human dermal fibroblasts; experiment: Blyscan glycosaminoglycan assay, proteoglycan synthesis by dermal fibroblasts; conditions: 0.5 mg/ml, two weeks stimulation; for increase in the synthesis of proteoglycans by dermal fibroblasts compared to untreated controls: hydroxylated peptides
Method: The human cells used were obtained from tebu-bio GmbH, Offenbach, Germany. The chondrocytes (Cat. No. 402-05a) or dermal fibroblasts (Cat. No. 106-05a) were first sown in 12-well culture plates and cultured at 37° C., 5% CO2 in Ham's F12 medium, to which 10% fetal calf serum, 20 U/ml penicillin-streptomycin and 50 μg/ml ascorbic acid were added. On every other day, the culture medium was replaced by new culture medium until the cells had reached 80% confluence. […] The Blyscan glycosaminoglycan assay (Article No. 054B3000, 2019, tebu-bio, Offenbach, Germany, or Biocolor Ltd., UK) was used to determine proteoglycans. The biosynthesis of proteoglycans was determined after stimulating dermal fibroblasts for two weeks. According to the manufacturer's instructions, after discarding the culture medium, the cell layers were covered with 1 ml of papain extraction solution and incubated for three hours at 65° C. with vigorous shaking. The cell suspensions were then centrifuged (10,000 g, 10 min) and the supernatants were collected. After adding 1 ml of Blyscan dye solution and shaking (30 min), the supernatants were centrifuged again (12,000 rpm, 10 min) and then discarded. The isolated proteoglycan pellets were resuspended in 500 μl of dissociation solution. A photometric determination of the synthesized proteoglycan in 200 μl sample solution was carried out at a wavelength of 656 nm in comparison to untreated control experiments.

[3] = tested on: human chondrocytes; experiment: Sircol collagen assay, collagen synthesis by chondrocytes; conditions: 0.5 mg/ml peptide, three weeks stimulation
Method: as §1

[4] = tested on: human chondrocytes; experiment: Blyscan glycosaminoglycan assay, proteoglycan synthesis by chondrocytes; conditions: 0.5 mg/ml; for increase in collagen synthesis (in the proteoglycan assay, chondrocytes): hydroxylated peptides

Row | Substance | increase in collagen synthesis by dermal fibroblasts compared to untreated controls [1] | increase in the synthesis of proteoglycans by dermal fibroblasts compared to untreated controls [2] | increase in collagen synthesis by chondrocytes compared to untreated controls [3] | increase in collagen synthesis (in the proteoglycan assay, chondrocytes) [4] | increase in collagen synthesis (in the proteoglycan assay, dermal fibroblasts) ([2]; non-hydroxylated peptides) | increase in the synthesis of proteoglycans by chondrocytes compared to untreated controls ([4]; non-hydroxylated peptides)
1 | Gly-Pro-4Hyp-Gly-Pro-Leu-Gly-Met-Lys-Gly-Leu-4Hyp-Gly-Val-Trp-Gly-Pro-Phe-Gly-Leu-4Hyp-Gly-Thr-Pro-Gly-Pro-His-Gly-Ile-Thr-Gly-Tyr-Lys-Gly-Val [SEQ ID No. 29] | 21% | 21% | – | – | – | –
2 | Gly-Ala-4Hyp-Gly-Lys-Asp-Gly-Val-Arg-Gly-Leu-Thr-Gly-Pro-Ile-Gly-Pro-4Hyp-Gly-Pro-Ala-Gly-Ala (GA[Hyp]GKDGVRGLTGPIGP[Hyp]GPAGA) [SEQ ID No. 18, collagen peptide comprising 23 amino acids] | 40% | 31% | 32% | 25% | – | –
3 | Gly-Val-4Hyp-Gly-Lys-Tyr-Gly-Val-Arg-Gly-Leu-Thr-Gly-Pro-Ile-Gly-Pro-4Hyp-Gly-Pro-Leu-Gly-Ile-4Hyp-Gly-Trp-Lys-Gly-Phe-Val-Gly-Pro-Thr (GV[Hyp]GKYGVRGLTGPIGP[Hyp]GPLGI[Hyp]GWKGFVGPT) [SEQ ID No. 23, collagen peptide comprising 33 amino acids] | 39% | 22% | 19% | 11% | – | –
4 | Gly-Pro-4Hyp-Gly-Pro-Ala-Gly-Glu-Lys-Gly-Ala-4Hyp-Gly-Ala-Asp-Gly-Pro-Ala-Gly-Ala-4Hyp-Gly-Thr-Pro-Gly-Pro-Gln-Gly-Ile-Ala-Gly-Gln-Arg-Gly-Val (GP[Hyp]GPAGEKGA[Hyp]GADGPAGA[Hyp]GTPGPQGIAGQRGV) [SEQ ID No. 22, collagen peptide comprising 35 amino acids] | 43% | 28% | 46% | 26% | – | –
5 | Gly-Ala-4Hyp-Gly-Lys-Asp-Gly-Val-Arg-Gly-Leu-Thr-Gly-Pro-Ile-Gly-Pro-4Hyp-Gly-Pro-Ala-Gly-Ala-4Hyp-Gly-Asp-Lys-Gly-Glu-Ala-Gly-Pro-Ser-Gly-Pro-Ala-Gly-Pro-Thr-Gly-Ala-Arg-Gly-Ala-4Hyp-Gly-Asp-Arg-Gly-Glu-4Hyp-Gly-Pro-4Hyp-Gly-Pro-Ala-Gly-Phe-Ala-Gly-Pro-4Hyp-Gly-Ala-Asp-Gly-Gln-4Hyp-Gly-Ala-Lys-Gly-Glu-Pro-Gly-Asp-Ala-Gly-Ala-Lys-Gly-Asp-Ala-Gly-Pro-Pro-Gly-Pro-Ala [SEQ ID No. 20] | 37% | 29% | – | 15% | – | –
6 | Gly-Ala-4Hyp-Gly-Lys-Asp-Gly-Val-Arg-Gly-Leu-Thr-Gly-4Hyp-Ile-Gly-4Hyp-4Hyp-Gly-4Hyp-Ala-Gly-Ala-4Hyp-Gly-Asp-Lys-Gly-Glu-Ala-Gly-4Hyp-Ser (GA[Hyp]GKDGVRGLTG[Hyp]IG[Hyp][Hyp]G[Hyp]AGA[Hyp]GDKGEAG[Hyp]S) [SEQ ID No. 25, collagen peptide comprising 33 amino acids] | 27% | 23% | 19% | – | – | –
7 | Gly-Pro-4Hyp-Gly-Pro-Val-Gly-Thr-Lys-Gly-Ile-4Hyp-Gly-Val-Tyr-Gly-Pro-Leu-Gly-Ile-4Hyp-Gly-Thr-Pro-Gly-Pro-Trp-Gly-Ile-Leu-Gly-Thr-Lys-Arg-Gly-Val (GP[Hyp]GPVGTKGI[Hyp]GVYGPLGI[Hyp]GTPGPWGILGTKRGV) [SEQ ID No. 24, collagen peptide comprising 36 amino acids] | 36% | 26% | 26% | 15% and 26% | – | –
8 | Gly-Ala-4Hyp-Gly-Lys-Asp-Gly-Val-Arg-Gly-Leu-Thr-Gly-Pro-Ile-Gly-Pro-4Hyp-Gly-Pro-Ala-Gly-Ala-4Hyp-Gly-Asp-Lys-Gly-Glu-Ala-Gly-Pro-Ser (GA[Hyp]GKDGVRGLTGPIGP[Hyp]GPAGA[Hyp]GDKGEAGPS) [SEQ ID No. 7, collagen peptide comprising 33 amino acids] | 42% | 41% | 28% | 30% | – | –
9 | Gly-Pro-4Hyp-Gly-Pro-Val-Gly-Thr-Lys-Gly-Leu-4Hyp-Gly-Phe-Tyr-Gly-Pro-Leu-Gly-Ile-4Hyp-Gly-His-Pro-Gly-Pro-Trp-Gly-Met-Leu-Gly-Thr-Lys-Gly-Val [SEQ ID No. 30] | 21% | 22% | – | – | – | –
10 | Gly-Ala-4Hyp-Gly-Pro-Pro-Gly-Pro-4Hyp-Gly-Ala-Arg-Gly-Gln-Ala-Gly-Val-Met-Gly-Phe-4Hyp-Gly-Pro-Lys [SEQ ID No. 10] | 35% | 25% | 20% | 29% | – | –
11 | GAPGKDGVRGLTGPIGPPGPAGAPGDKGEAGPS [SEQ ID No. 2, collagen peptide comprising 33 amino acids] | 22% | – | 16% | – | 18% | 22%
12 | Lys-Gly-Ala-4Hyp-Gly-Ala-Asp-Gly-Pro-Ala-Gly-Ala-4Hyp-Gly-Thr-Pro-Gly-Pro-Gln (KGA[Hyp]GADGPAGA[Hyp]GTPGPQ) [SEQ ID No. 21, collagen peptide comprising 19 amino acids] | 36% | 27% | 55% | 22% | – | –
13 | Gly-Leu-4Hyp-Gly-Lys-Met-Gly-Val-Phe-Gly-Leu-Thr-Gly-Pro-Ile-Gly-Pro-4Hyp-Gly-Pro-Trp-Gly-Val-4Hyp-Gly-His-Lys-Gly-Tyr-Leu-Gly-Pro-Thr (GL[Hyp]GKMGVFGLTGPIGP[Hyp]GPWGV[Hyp]GHKGYLGPT) [SEQ ID No. 27, collagen peptide comprising 33 amino acids] | 27% | 26% | – | – | – | –
14 | His-His-His-His-His-His-Gly-Ala-4Hyp-Gly-Lys-Asp-Gly-Val-Arg-Gly-Leu-Thr-Gly-Pro-Ile-Gly-Pro-4Hyp-Gly-Pro-Ala-Gly-Ala-4Hyp-Gly-Asp-Lys-Gly-Glu-Ala-Gly-Pro-Ser (HHHHHHGA[Hyp]GKDGVRGLTGPIGP[Hyp]GPAGA[Hyp]GDKGEAGPS) [SEQ ID No. 26, collagen peptide comprising 39 amino acids] | 12% | 6% | 12% | – | – | –
15 | Gly-Leu-4Hyp-Gly-Lys-Tyr-Gly-Val-His-Gly-Leu-Thr-Gly-Pro-Leu-Gly-Pro-4Hyp-Gly-Pro-Met-Gly-Ile-4Hyp-Gly-Trp-Lys-Gly-Phe-Val-Gly-Pro-Thr (GL[Hyp]GKYGVHGLTGPLGP[Hyp]GPMGI[Hyp]GWKGFVGPT) [SEQ ID No. 28, collagen peptide comprising 33 amino acids] | 22% | 22% | – | – | – | –
